How the values were obtained:
DGKα [1] = biological target: T1, DGKα (Homo sapiens (Human), UniProt P23743); settings: prior art; cited from earlier work
Target sequence in this assay (P23743 whole entry, species assumed): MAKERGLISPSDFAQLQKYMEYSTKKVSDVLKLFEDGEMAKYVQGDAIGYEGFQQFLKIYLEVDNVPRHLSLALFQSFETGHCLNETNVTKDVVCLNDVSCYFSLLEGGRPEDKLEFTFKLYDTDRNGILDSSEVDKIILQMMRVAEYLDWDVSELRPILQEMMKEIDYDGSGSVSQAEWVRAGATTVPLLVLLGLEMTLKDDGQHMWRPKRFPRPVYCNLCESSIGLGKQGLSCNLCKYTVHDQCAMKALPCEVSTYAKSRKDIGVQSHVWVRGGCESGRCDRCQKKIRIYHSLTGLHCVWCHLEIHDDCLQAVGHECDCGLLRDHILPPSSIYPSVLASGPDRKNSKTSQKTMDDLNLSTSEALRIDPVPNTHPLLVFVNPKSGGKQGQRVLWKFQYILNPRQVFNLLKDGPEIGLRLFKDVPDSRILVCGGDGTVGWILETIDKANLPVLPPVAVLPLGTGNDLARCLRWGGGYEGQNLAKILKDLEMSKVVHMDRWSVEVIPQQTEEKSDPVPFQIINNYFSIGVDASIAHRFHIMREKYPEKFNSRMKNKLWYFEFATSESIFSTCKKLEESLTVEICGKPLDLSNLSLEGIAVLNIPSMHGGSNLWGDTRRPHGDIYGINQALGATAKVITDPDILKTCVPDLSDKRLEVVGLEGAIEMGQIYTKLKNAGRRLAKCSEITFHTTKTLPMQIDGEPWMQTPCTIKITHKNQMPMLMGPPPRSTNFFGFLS

[2] = tested on: intracranially injected GBM tumors; settings: concurrent administration; Dominguez et al. 2013; cited from earlier work
DGKα [3] = biological target: T1, DGKα; assay: Human DGKα kinase activity inhibition assay (ADP-Glo); assay type: biochemical; settings: recombinant full-length human DGKα, 55 μM ATP, 7 μM 1,2-dioleoyl-sn-glycerol, read-out: IC50 values of examples in in vitro human DGKa kinase activity inhibition assays
Procedure, shortened: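 Activity was measured as ADP production, detected by luciferase luminescence after removal of unused ATP. The enzyme was baculovirus-expressed full-length human DGKα with a C-terminal FLAG tag. The substrate was 1,2-dioleoyl-sn-glycerol in detergent micelles, and compounds came from 100× DMSO solutions.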
Target sequence in this assay (P23743 other isoform, or with tags, fused parts or gaps): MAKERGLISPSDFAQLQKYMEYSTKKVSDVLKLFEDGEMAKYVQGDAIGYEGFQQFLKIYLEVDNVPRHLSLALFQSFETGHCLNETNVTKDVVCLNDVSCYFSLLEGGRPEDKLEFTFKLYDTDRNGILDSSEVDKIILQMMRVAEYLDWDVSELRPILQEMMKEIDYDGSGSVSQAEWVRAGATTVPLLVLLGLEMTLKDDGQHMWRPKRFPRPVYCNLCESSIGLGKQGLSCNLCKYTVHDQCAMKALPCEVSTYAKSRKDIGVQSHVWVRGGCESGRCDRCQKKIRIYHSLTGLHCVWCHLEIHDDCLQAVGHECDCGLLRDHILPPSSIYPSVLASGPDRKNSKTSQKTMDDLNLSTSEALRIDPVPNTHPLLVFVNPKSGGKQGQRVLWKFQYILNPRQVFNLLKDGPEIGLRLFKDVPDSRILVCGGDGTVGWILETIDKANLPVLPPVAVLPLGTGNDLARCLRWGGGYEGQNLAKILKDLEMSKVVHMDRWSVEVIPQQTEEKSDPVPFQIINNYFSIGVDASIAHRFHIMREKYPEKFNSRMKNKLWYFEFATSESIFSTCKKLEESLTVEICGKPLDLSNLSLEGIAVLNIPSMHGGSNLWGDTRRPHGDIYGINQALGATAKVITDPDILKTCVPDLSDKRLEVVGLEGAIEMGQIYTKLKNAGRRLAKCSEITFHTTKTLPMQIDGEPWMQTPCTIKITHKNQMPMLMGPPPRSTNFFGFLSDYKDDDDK

Row | SMILES | inhibitory activity on DGKα (DGKα [1]) | further results
1 | O=C1/C(=C\C=C\c2ccco2)SC(=S)N1NS(=O)(=O)c1ccccc1 [CU-3] | sub-micromolar | 
2 | Cc1nc2sccn2c(=O)c1CCN1CCC(=C(c2ccc(F)cc2)c2ccc(F)cc2)CC1 [Ritanserin] | comparable activity | 
3 | Cc1ccc2c(C(=O)CN3CCN(C(=O)c4ccco4)CC3)c(C)[nH]c2c1 [AMB639752] | micromolar | 
4 | Cc1nc2sccn2c(=O)c1CCN1CCC(=C(c2ccccc2)c2ccc(F)cc2)CC1 [Example R59022] |  | growth of intracranially injected GBM tumors [2]: decreased growth
5 | Cn1c(=O)c(C#N)c(N2CCC(c3nc4ccccc4o3)CC2)c2cccc(Cl)c21 [Example 162, 4-[4-(1,3-benzoxazol-2-yl)piperidin-1-yl]-8-chloro-1-methyl-2-oxo-1,2-dihydroquinoline-3-carbonitrile] |  | IC50 (DGKα [3]): 134 nM

— US11998539B2, “Substituted aminoquinolones as DGKalpha inhibitors for immune activation” (Bayer Aktiengesellschaft, priority 2019, dated 2024)
